Reference: paper PMC11318101, “Fragment-Based Screen of SARS-CoV-2 Papain-like Protease (PL^pro)” (ACS Medicinal Chemistry Letters, 2024)

biological target: SARS-CoV-2 PLPro (full-length, intact C111) (Severe acute respiratory syndrome coronavirus 2, UniProt P0DTD1, C1833S); type: biochemical

Compound | inhibition at 1 mM [%]
Cc1cc(Nc2ccccc2C)n2ncnc2n1 [Fragment 9] | 5
Cc1ccc(Nc2cc(C)nc3nncn23)c(C)c1 [Fragment 11] | 2
CC(C)c1cc(O)n2ncc(-c3ccccc3)c2n1 [Fragment 8] | 62
Cn1ncc2c(Nc3ccccc3Cl)ncnc21 [Fragment 7] | 30
